Results: PMC6320368, “A T-cell receptor escape channel allows broad T-cell response to CD1b and membrane phospholipids” (Nature Communications, 2019)

What was measured:
[1] = target: T1, CD1b (human CD1b monomer with β2m; CD1b tetramer) (Homo sapiens, UniProt P29016); assay: lipid-loaded CD1b tetramer staining of T-cell lines; assay type: cell-based; conditions: indirect read-out of lipid loading; CHAPS, citrate pH 7.4, 37 °C loading
T1 construct: soluble ectodomain with beta-2-microglobulin; His-tag purified; from High Five insect cells or HEK293S GnTI- (crystals, SPR); tetramer-facility monomers from U293 cells; with Beta-2-microglobulin
T1 sequence (P29016 20-296): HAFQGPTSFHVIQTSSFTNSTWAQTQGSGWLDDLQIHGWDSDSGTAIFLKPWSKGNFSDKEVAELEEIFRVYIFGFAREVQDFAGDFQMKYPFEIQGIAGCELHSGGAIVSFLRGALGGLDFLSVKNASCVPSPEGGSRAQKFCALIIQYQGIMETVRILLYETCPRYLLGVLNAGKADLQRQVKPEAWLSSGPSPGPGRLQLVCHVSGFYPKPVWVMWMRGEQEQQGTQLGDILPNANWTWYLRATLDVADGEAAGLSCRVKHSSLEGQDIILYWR
T1 sequence (P61769 21-119 partner): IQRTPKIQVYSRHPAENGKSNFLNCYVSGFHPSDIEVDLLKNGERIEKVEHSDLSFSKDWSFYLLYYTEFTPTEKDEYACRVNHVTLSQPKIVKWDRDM

[2] = target: T1, CD1b (human CD1b monomer with β2m; CD1b tetramer); assay: SPR of BC8B TCR on lipid-loaded CD1b; tetramer staining; assay type: binding; conditions: indirect read-out of lipid loading; pH 8.0, 25 °C

| Structure (SMILES) | lipid-loaded CD1b tetramer staining of T-cell lines [1] | SPR of BC8B TCR on lipid-loaded CD1b; tetramer staining [2] |
| --- | --- | --- |
| CCCCCCCC/C=C\CCCCCCCC(=O)OC[C@@H](O)COP(=O)(O)O [LPA, lysophosphatidic acid] | specifically stained with phospholipids carrying small head groups, such as PG and LPA |  |
| CCCCCCCCCCCCC/C=C/[C@@H](O)[C@H](COP(=O)([O-])OCC[N+](C)(C)C)NC(=O)CCCCCCCCCCCCCCC [SM, sphingomyelin] |  | The BC8B TCR detectably interacted with CD1b presenting the sphingolipid antigens, SM and sulfatide |
